# Reference: patent publication US5906922A, “Delivery of nucleic acids” (Commonwealth Scientific and Industrial Research Organisation, priority 1994, dated 1999)
# Where a SMILES comes first, the peptide text is derived from it. The star is where a group is joined. NHC(CH2OLauroyl)3 = CCCCCCCCCCCC(=O)OCC(COC(=O)CCCCCCCCCCC)(COC(=O)CCCCCCCCCCC)N*
# What was measured:
# Cos 1 cells [1] = experiment: β-gal microtitre plate transfection assay, Cos 1; assay type: cell-based, African Green Monkey; conditions: for relative transfection level (A linker compound as reference): "y" linker experiment c, Cos 1, trilysine trilaurate
# Description: (§1) For experiment "c", a plasmid pPGKlaczNLS encoding β-galactosidase under the control of the mouse PGK promoter (kind gift from G.Hannan) or pSVGAL which utilises the SV40 early promoter (Sleigh, M. J. and Lockett, T. J. (1985). EMBO J. 4:3831-3837),was transfected. This experiment and assay were modified from Feigner et al J. Biol Chem. 269(4) 2550-2561 1994. This protocol allows the simultaneous assessment of 72 different combinations and concentrations of DNA and test agent in a microtitre tray. […] Cytotoxicity was assessed using alamar blue, and a sample graph is shown for experiment a.
# Compounds were tested for their ability to transfect either the CAT or β-gal gene carried on plasmids, and assayed as described above.
# (§2) The ratio of [lipid]/[DNA] at which that maximum was achieved is shown. Experiments shown were carried out in Cos 1 cells, as described above. MTS OD is a measure of relative viabilility of the cells exposed to the different agents, a higher value indicates greater cell viability. * These points were taken from a separate experiment and some slight variation between absolute numbers should be expected between experiments.
# Each of these compounds was tested for transfection ability and cytotoxicity on standard cell lines using standard conditions as described above.
# (§3) The ratio of [lipid]/[DNA] at which that maximum was achieved is shown in brackets for the two different cell types in the following order; (Cos 1) (CHO). Experiments shown were carried out in Cos 1 cells, as described above. Viability was measured with the dye alamar blue . # Denotes compounds tested in a separate experiment. * Viability in this experiment was determined with MTS. OD is a measure of relative viability of the cells exposed to the different agents, and as with alamar blue, a higher value indicates greater cell viability.
# cells = experiment: β-gal reporter transfection, "y" linker non-standard amino acids; assay type: cell-based; conditions: K3 "y" TL3 compounds
# Method: Peptide/fatty acyl conjugates were synthesized using the non-standard amino acids amino butyric (C3), amino caproic (C5) and amino caprylic (C7) acids as the linker groups, a tri-lysine nucleic acid binding domain and laurate for the three fatty acyl groups. In these new conjugates the DNA binding and tris/fatty acyl moieties were separated by an extra 3, 5 and 7 carbon bond lengths respectively when compared with the prototype molecule. These compounds were then tested in the standard manner described above to determine their relative capacity to transfect cells.
# K3 "y" TL3 compounds, where y=C3, C5, C7, A, L, G were compared for transfection efficiency to each other and the commercial agent Lipofectamine using the standard β-gal reporter gene system described above.
# Cos 1 cells [2] = experiment: Cellular uptake and distribution of fluorescein conjugates (confocal microscopy); assay type: cell-based, African Green Monkey; conditions: for cell staining after treatment: cells fixed fifteen minutes after treatment; for persistence of staining: conjugate washed off after 2 hours, cells grown 24 hours; for distribution in live, unfixed cells: 40× objective
# Method: In order to assess the ability to deliver compounds into cells, preliminary experiments were conducted with fluorescein alanine ethanolamine palmitate (FLAEP) and fluorescein alanine tris tripalmitate (FLATP3).
# After the incubation period as specified in the experiment, up to 24 hours exposure, the cells were washed and fixed in formaldehyde for 20 minutes. Cells were then observed under laser excitation in a Bio Rad MRC 500 confocal microscope.
# Cos 1 cells [3] = experiment: Transfection of pSVLCAT, CAT assay, Cos 1; assay type: cell-based, African Green Monkey
# Method: To test the transfection properties of the lead compound K3ATP3 (VerafectinA3), whole uncut plasmid carrying the gene encoding CAT (chloramphenicol acetyl transferase) under the control of the SV40 late promoter, pSVLCAT (Cameron, F. H. and Jennings, P. A. (1989) PNAS 86, 9139-9143) was mixed with the test agent and put on Cos 1 cells under various conditions. After 48 hours of culture the level of secreted CAT was assayed from the culture medium.
# Solution I: 1 μg Plasmid DNA in 500 μl Dulbeccos Modified Eagles Medium (DME)
# Solution II: 0-20 μl VerafectinA3 (2.5 mg/ml 25% DMSO) in 500 μl DME, Vortex
# Combine solution I and II, vortex briefly and incubate at room temperature for 10 min.
# Add mix to washed cells in 60 mm tissue culture dishes (seeded 0.5×10^6 /dish previous day) for 6 hrs at 37° C., 5% C02. Add 2 ml DME+10% FCS for remainder of 48 hrs. Assay CAT levels in tissue culture medium (Sleigh, M. J. (1986) Anal. Biochem. 156.251-256).
# a--Compare VerafectinA3 dissolved in DMSO or ethanol.
# b--Compare VerafectinA3 on cells 6 hrs to overnight. VerafectinA3 at 10 mg/ml in 100% solvent was diluted to 2.5 mg/ml with water.
# Transfection was carried out as for experiment 1. VerafectinA3 was left in contact with the cells for varying times.
# Protocol was the same for the Verafectins as described above. Lipofectamine protocol was according to manufacturers instructions. Cos 1 cells were seeded at 5×10^5 /60 mm dish and adhered overnight in DME with 10% FCS.
# Solution A: 0.5 μg pSVLCAT/60 mm dish.
# Solution B: Lipofectamine 10 and 15 μl 2 mg/ml (mixed formulation 3:1 with DOPE).
# OR; VerafectinA3 and VerafectinG2 20 μl 2 mM (2.8 and 2.3 mg/ml respectively) stock.
# OR; VerafectinG2 was also tested with an equimolar amount of DOPE. VerafectinG2 and DOPE were mixed in DDME and vortexed for 30 seconds before use. Solutions A and B were combined before overlaying on washed cells.
# The serum free incubation period in the presence of test agents and DNA was 6 hrs, then 1 ml DME+10% FCS was added. At 24 hours medium was changed to 2 ml fresh DME+10% FCS until harvest at 48 hrs.
# Cell lines Cos 1 or CHO were transfected with 0.5 μg of pSVLCAT or 2 μg of pPGKlacZ plasmid using a range of concentrations of each transfection compound. The optimal concentration of compound, that is the concentration giving the highest level of CAT at 48 hours or the greatest percentage of lac z (β-galactosidase) staining cells at 24 hours was used to collate data for Table 1. As all compounds were not tested in a single experiment, absolute figures indicating transfection were not used. Rather, symbols are used to indicate the transfection efficiency relative to Lipofectamine (BRL), which was included as a control in all experiments. Table 1 thus indicates the relative efficiencies of a number of compounds in mediating the transfection of at least one cell type.
# All test lipopeptide reagents were originally dissolved at 10 mM in 75% DMSO, and subsequently diluted with water to make a 2 mM stock stored at 4° C. Volumes of 2 mM stock lipopeptide ranging from 2 μl to 15 μl were diluted in 500 μl of DDME. 1 μg of plasmid pSVLCAT was separately diluted in 500 μl of DDME. Solutions were combined for 10-20 min at room temperature before adding to 500 μl of DDME in 60 mm dishes of subconfluent CHO cells (2×10^5 day-1) or Cos 1 cells (5×10^5 day-1); washed free of serum with DDME.
# Cells were incubated for 6 hrs under standard conditions of 37° C. and 5% CO2 for 6 hours. 1.5 ml of DME/Hams+10% FCS (CHO) or DME+10% FCS (Cos 1) was added to the cells for overnight incubation. Fresh DME/Hams+10% FCS or DME+10% FCS was used to replace the medium for a further 24 hours prior to harvest. Cell lysates were prepared and assayed for CAT activity as described above. For Cos 1 cells, culture supernatants were assayed for CAT activity.
# For transfection of pSVLCAT and subsequent assay of CAT enzyme, experiments "a" and "b" were carried out as described above.
# Cos 1 cells [4] = assay type: cell-based, African Green Monkey
# Description: Relative levels of cytotoxicity caused by the different agents were compared during the experiment using the dye "Alamar Blue" (Alamar, Sacramento Calif.).
# as §1, §2, §3
# Cos 1 cells [5] = assay type: cell-based, African Green Monkey; remark: listed apart in the source
# Method: Relative levels of cytotoxicity were also assayed in subsequent experiments using the dye MTS, marketed as Cell titre 96 Aqueous (Promega).
# as §2, §3
compound,measurement,setting,value
CCCCCCCCCCCC(=O)OCC(COC(=O)CCCCCCCCCCC)(COC(=O)CCCCCCCCCCC)NC(=O)CNC(=O)[C@H](CCCCN)NC(=O)[C@H](CCCCN)NC(=O)[C@@H](N)CCCCN [K3GTL3] (H-KKKG-{NHC(CH2OLauroyl)3}),relative transfection level (A linker compound as reference),Cos 1 cells [1],12%
same,transfection efficiency compared to Lipofectamine,cells,All of the compounds except K3GTL3 were found to be more efficient at transfection than Lipofectamine
CCCCCCCCCCCC(=O)OCC(COC(=O)CCCCCCCCCCC)(COC(=O)CCCCCCCCCCC)NC(=O)CCCCCNC(=O)[C@H](CCCCN)NC(=O)[C@H](CCCCN)NC(=O)[C@@H](N)CCCCN [K3C5TL3],transfection efficiency compared to Lipofectamine,cells,more efficient at transfection than Lipofectamine
same,transfection efficiency compared to standard single amino acid linker,cells,dramatically more efficient than compounds using the standard single amino acid linker
fluorescein alanine Tris tripalmitate [FLATP3],cell staining after treatment,Cos 1 cells [2]; 10 μM,intense cytoplasmic staining
same,localisation of conjugate,"Cos 1 cells [2]; 10 μM, fixed cells",appeared to associate preferentially with the cellular and nuclear membranes
same,persistence of staining,Cos 1 cells [2],a pattern that persisted in cells allowed to grow for 24 hours
same,"distribution in live, unfixed cells",Cos 1 cells [2],exhibited a similar pattern whether the cells were live or fixed
CCCCCCCCCCCC(=O)OCC(COC(=O)CCCCCCCCCCC)(COC(=O)CCCCCCCCCCC)NC(=O)[C@H](CC(C)C)NC(=O)[C@H](CCCCN)NC(=O)[C@H](CCCCN)NC(=O)[C@@H](N)CCCCN [K3LTL3] (H-KKKL-{NHC(CH2OLauroyl)3}),relative transfection level (A linker compound as reference),Cos 1 cells [1],57%
same,transfection efficiency compared to Lipofectamine,cells,more efficient at transfection than Lipofectamine
CCCCCCCCCCCCCCCC(=O)OCC(CO)(COC(=O)CCCCCCCCCCCCCCC)NC(=O)[C@H](CC(C)C)NC(=O)[C@H](CCCCN)NC(=O)[C@@H](N)CCCCN [K2LTP2],"transfection, linkers K, F and L compared","Cos 1 cells [3]; ""y"" linker experiment a, Cos 1, dilysine dipalmitate","marginally superior results to F, but was substantially more effective than the K compound"
same,"transfection, linkers A and L compared","Cos 1 cells [3]; ""y"" linker experiment b, Cos 1",very similar activities
same,"toxicity, linkers K, F and L compared",Cos 1 cells [4],somewhat higher than for the K compound
CCCCCCCCCCCCCCCC(=O)OCC(COC(=O)CCCCCCCCCCCCCCC)(COC(=O)CCCCCCCCCCCCCCC)NC(=O)[C@H](CCCCN)NC(=O)[C@H](CCCCN)NC(=O)[C@@H](N)CCCCN [K2KTP3],"cytotoxicity, dipalmitate versus tripalmitate",Cos 1 cells [4],increase in cytotoxicity
CCCCCCCCCCCC(=O)OCC(COC(=O)CCCCCCCCCCC)(COC(=O)CCCCCCCCCCC)NC(=O)CCCNC(=O)[C@H](CCCCN)NC(=O)[C@H](CCCCN)NC(=O)[C@@H](N)CCCCN [K3C3TL3],transfection efficiency compared to Lipofectamine,cells,more efficient at transfection than Lipofectamine
same,transfection efficiency compared to standard single amino acid linker,cells,dramatically more efficient than compounds using the standard single amino acid linker
"O=C1OC2(c3ccc(O)cc3Oc3cc(O)ccc32)c2ccccc21 [fluorescein, reference compound]",cell staining after treatment,Cos 1 cells [2]; 10 μM,only a very weak generalised fluorescence over the whole cell
CCCCCCCCCCCCCCCC(=O)OCC(CO)(COC(=O)CCCCCCCCCCCCCCC)NC(=O)[C@H](Cc1ccccc1)NC(=O)[C@H](CCCCN)NC(=O)[C@@H](N)CCCCN [K2FTP2],"toxicity, linkers K, F and L compared",Cos 1 cells [4],somewhat higher than for the K compound
fluorescein alanine ethanolamine palmitate [FLAEP],cell staining after treatment,Cos 1 cells [2]; 10 μM,intense cytoplasmic staining
same,persistence of staining,Cos 1 cells [2],This same persistence of staining was not observed
same,"distribution in live, unfixed cells",Cos 1 cells [2],"appeared to enter the cell readily, but was concentrated particularly in the nucleus"
CCCCCCCCCCCCCC(=O)OCC(CO)(COC(=O)CCCCCCCCCCCCC)NC(=O)[C@H](C)NC(=O)[C@H](CCCCN)NC(=O)[C@H](CCCCN)NC(=O)[C@@H](N)CCCCN [K3ATM2],MTS OD490-655,Cos 1 cells [5],1.56
same,Viability (Cos 1),Cos 1 cells [5],1.56
same,ratio [lipid]/[DNA] at which maximum was achieved,"Cos 1 cells [1]; Table 2, Cos 1",0.35
same,units β-gal,"Cos 1 cells [1]; Table 2, Cos 1, highest reading of 72 conditions",3.46 × 10^-5 units
same,ratio [lipid]/[DNA] at which maximum was achieved,"Cos 1 cells [1]; Table 3, Cos 1",.35
same,β-gal (Cos 1),"Cos 1 cells [1]; Table 3, Cos 1, highest reading of 72 conditions",3.46 × 10^-5
